Reference: ChEMBL document CHEMBL5532697, “Imidazopyrimidine: from a relatively exotic scaffold to an evolving structural motif in drug discovery” (RSC Med Chem, 2024)
≈ marks a conversion by molar mass, not a printed value.

Key:
MCF7 = assay: Antiproliferative activity against human MCF7 cells assessed as inhibition of cell growth incubated for 48 hrs by alamarblue staining based assay; assay type: functional; settings: MCF7, 48 h
COLO 205 = assay: Antiproliferative activity against human COLO 205 cells assessed as inhibition of cell growth incubated for 48 hrs by alamarblue staining based assay; assay type: functional; settings: COLO 205, 48 h
A549 [1] = assay: Antiproliferative activity against human A549 cells assessed as inhibition of cell growth incubated for 48 hrs by alamarblue staining based assay; assay type: functional; settings: A549, 48 h
Pyruvate kinase PKM = Pyruvate kinase PKM (Homo sapiens, UniProt P14618); assay: Inhibition of recombinant PKM2 (unknown origin)
[2] = biological target: cAMP and cAMP-inhibited cGMP 3',5'-cyclic phosphodiesterase 10A (Homo sapiens, UniProt Q9Y233); assay: Inhibition of full length human PDE10A incubated for 1 hr by topcount Scintillation plate reader analysis
CCRF-CEM = assay: Antiproliferative activity against human CCRF-CEM cells assessed as inhibition of cell growth incubated for 72 hrs by MTT assay; assay type: functional, cell-based
CEM-DNR = assay: Antiproliferative activity against human CEM-DNR cells assessed as inhibition of cell growth incubated for 72 hrs by MTT assay; assay type: functional, cell-based
A549 [3] = assay: Antiproliferative activity against human A549 cells assessed as inhibition of cell growth incubated for 72 hrs by MTT assay; assay type: functional, cell-based; settings: A549, 72 h
HCT-116 = assay: Antiproliferative activity against human HCT-116 cells assessed as inhibition of cell growth incubated for 72 hrs by MTT assay; assay type: functional, cell-based; settings: HCT-116, 72 h
K562 = assay: Antiproliferative activity against human K562 cells assessed as inhibition of cell growth incubated for 72 hrs by MTT assay; assay type: functional, cell-based; settings: K562, 72 h
[4] = tested on: Meyerozyma guilliermondii; assay: Antifungal activity against Meyerozyma guilliermondii assessed as reduction in fungal growth incubated for 24 hrs by CLSI based assay; assay type: functional
Pichia kudriavzevii = assay: Antifungal activity against Candida krusei ATCC 6358 assessed as reduction in fungal growth incubated for 24 hrs by CLSI based assay; assay type: functional
Nakaseomyces glabratus = assay: Antifungal activity against Candida glabrata CBS138 assessed as reduction in fungal growth incubated for 24 hrs by CLSI based assay; assay type: functional
Candida tropicalis = assay: Antifungal activity against Candida tropicalis MYA-3404 assessed as reduction in fungal growth incubated for 24 hrs by CLSI based assay; assay type: functional
Candida dubliniensis = assay: Antifungal activity against Candida dubliniensis CD36 assessed as reduction in fungal growth incubated for 24 hrs by CLSI based assay; assay type: functional
Kluyveromyces marxianus [5] = assay: Antifungal activity against Candida kefyr assessed as reduction in fungal growth incubated for 24 hrs by CLSI based assay; assay type: functional
Candida albicans [6] = assay: Antifungal activity against Candida albicans ATCC 10231 assessed as reduction in fungal growth incubated for 24 hrs by CLSI based assay; assay type: functional
A549 [7] = assay: Antiproliferative activity against human A549 cells assessed as inhibition of cell growth by MTT assay; assay type: functional, cell-based
Albumin = Albumin (Homo sapiens, UniProt P02768); assay: Inhibition of Albumin (unknown origin) denaturation at 100 uM relative to control
[8] = Cytotoxicity against human HFF cells assessed as cell growth inhibition by celltiter-glo assay; assay type: toxicity, cell-based
BK polyomavirus = assay: Antiviral activity against BK polyomavirus MM infected in human HFF cells assessed as reduction in viral growth incubated for 7 days; assay type: functional, organism-based; settings: Betapolyomavirus hominis, 168 h
Aorta = assay: Vasorelaxant activity in rabbit aorta assessed as inhibition of phenylephrine-induced contraction; assay type: functional, tissue-based; settings: Oryctolagus cuniculus
Kluyveromyces marxianus [9] = assay: Antifungal activity against Candida keyfer […] 410004 assessed as inhibition of fungal growth incubated for 48 hrs; assay type: functional
Neurospora crassa = assay: Antifungal activity against Neurospora crassa assessed as inhibition of fungal growth incubated for 48 hrs; assay type: functional
Aspergillus niger = assay: Antifungal activity against Aspergillus niger assessed as inhibition of fungal growth incubated for 48 hrs; assay type: functional
Candida albicans [10] = assay: Antifungal activity against Candida albicans NCPF 400034 assessed as inhibition of fungal growth incubated for 48 hrs; assay type: functional
Cryptococcus neoformans = assay: Antifungal activity against Cryptococcus neoformans NCPF 250316 assessed as inhibition of fungal growth incubated for 48 hrs; assay type: functional

Chain of cAMP and cAMP-inhibited cGMP 3',5'-cyclic phosphodiesterase 10A (Q9Y233 whole entry): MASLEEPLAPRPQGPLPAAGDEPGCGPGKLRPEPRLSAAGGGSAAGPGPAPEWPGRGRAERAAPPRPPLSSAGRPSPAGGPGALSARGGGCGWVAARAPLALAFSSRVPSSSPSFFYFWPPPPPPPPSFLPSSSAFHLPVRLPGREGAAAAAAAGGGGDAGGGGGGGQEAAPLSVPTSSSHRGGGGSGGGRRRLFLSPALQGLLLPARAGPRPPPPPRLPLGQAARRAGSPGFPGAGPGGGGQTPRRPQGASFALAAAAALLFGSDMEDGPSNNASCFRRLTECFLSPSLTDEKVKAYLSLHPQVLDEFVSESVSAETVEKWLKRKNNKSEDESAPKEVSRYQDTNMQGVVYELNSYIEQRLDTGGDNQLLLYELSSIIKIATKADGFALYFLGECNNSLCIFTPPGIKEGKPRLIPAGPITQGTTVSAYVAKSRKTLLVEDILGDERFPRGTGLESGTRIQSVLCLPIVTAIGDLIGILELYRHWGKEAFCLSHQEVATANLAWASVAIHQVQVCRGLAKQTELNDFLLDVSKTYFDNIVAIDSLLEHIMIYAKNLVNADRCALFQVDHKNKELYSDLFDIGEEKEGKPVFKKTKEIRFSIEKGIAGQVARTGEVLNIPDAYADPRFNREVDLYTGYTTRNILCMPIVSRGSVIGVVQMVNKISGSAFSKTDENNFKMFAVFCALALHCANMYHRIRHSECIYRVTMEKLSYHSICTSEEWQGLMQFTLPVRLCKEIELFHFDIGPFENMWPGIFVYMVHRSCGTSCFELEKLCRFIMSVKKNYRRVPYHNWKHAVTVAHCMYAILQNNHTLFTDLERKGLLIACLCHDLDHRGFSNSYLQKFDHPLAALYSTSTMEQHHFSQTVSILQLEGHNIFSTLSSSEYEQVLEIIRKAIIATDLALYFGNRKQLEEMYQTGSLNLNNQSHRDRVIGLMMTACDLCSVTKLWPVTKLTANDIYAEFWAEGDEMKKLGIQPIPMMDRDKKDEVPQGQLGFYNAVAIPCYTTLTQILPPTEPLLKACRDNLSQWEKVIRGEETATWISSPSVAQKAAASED
Chain of Pyruvate kinase PKM (P14618 whole entry): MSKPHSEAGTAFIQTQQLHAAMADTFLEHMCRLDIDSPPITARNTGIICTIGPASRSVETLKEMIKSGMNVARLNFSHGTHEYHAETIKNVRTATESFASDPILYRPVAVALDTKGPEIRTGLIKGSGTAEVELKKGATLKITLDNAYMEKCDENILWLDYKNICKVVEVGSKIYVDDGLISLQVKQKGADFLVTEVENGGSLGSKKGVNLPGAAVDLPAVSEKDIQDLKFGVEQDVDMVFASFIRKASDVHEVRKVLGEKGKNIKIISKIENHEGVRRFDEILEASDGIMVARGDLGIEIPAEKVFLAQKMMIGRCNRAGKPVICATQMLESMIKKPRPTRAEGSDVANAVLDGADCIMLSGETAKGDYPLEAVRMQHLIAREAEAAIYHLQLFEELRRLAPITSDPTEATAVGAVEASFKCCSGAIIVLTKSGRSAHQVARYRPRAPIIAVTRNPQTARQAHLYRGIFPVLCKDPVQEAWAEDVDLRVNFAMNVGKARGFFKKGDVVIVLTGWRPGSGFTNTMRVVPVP
Chain of Albumin (P02768 whole entry): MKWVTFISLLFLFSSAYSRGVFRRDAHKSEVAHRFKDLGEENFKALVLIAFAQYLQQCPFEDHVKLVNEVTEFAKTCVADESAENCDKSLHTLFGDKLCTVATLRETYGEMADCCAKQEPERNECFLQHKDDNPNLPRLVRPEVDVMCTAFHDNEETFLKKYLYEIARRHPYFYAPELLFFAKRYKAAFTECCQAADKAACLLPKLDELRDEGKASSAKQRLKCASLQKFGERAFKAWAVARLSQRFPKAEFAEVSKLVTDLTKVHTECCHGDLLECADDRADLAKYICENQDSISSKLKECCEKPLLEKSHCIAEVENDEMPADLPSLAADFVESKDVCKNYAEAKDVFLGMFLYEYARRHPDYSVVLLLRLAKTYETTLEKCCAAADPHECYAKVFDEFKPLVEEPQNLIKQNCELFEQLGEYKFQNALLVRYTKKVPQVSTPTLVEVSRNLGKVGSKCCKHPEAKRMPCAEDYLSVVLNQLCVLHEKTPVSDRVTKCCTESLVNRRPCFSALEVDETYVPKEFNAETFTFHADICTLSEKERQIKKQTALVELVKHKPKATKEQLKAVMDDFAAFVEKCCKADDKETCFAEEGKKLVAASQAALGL

## O=C(CN1CCN(c2ncccn2)CC1)c1cnc2ncccn12
MCF7
  IC50: 14.7 µM
COLO 205
  IC50: 65.8 µM
A549 [1]
  IC50: 24.4 µM
Pyruvate kinase PKM
  IC50: 0.45 µM

## Cc1c(C(=O)N2CCC2)cnn1C(=O)Nc1ccn2cc(-c3ccccc3)nc2n1
[2]
  IC50: 0.003 µM

## N#Cc1ccc(-c2c[nH]c(=O)n3ccnc23)cc1
CCRF-CEM
  IC50: 1.45 µM
CEM-DNR
  IC50: 18.8 µM
A549 [3]
  IC50: 5.07 µM
HCT-116
  IC50: 42.5 µM
K562
  IC50: 17.7 µM

## O=C(c1ccccc1)c1cnc2ncccn12
[4]
  MIC: 0.062 µg/mL (≈ 0.278 µM)
Pichia kudriavzevii
  MIC: 0.5 µg/mL (≈ 2.24 µM)
Nakaseomyces glabratus
  MIC: 0.062 µg/mL (≈ 0.278 µM)
Candida tropicalis
  MIC: 0.5 µg/mL (≈ 2.24 µM)
Candida dubliniensis
  MIC: 0.062 µg/mL (≈ 0.278 µM)
Kluyveromyces marxianus [5]
  MIC: 0.125 µg/mL (≈ 0.56 µM)
Candida albicans [6]
  MIC: 0.125 µg/mL (≈ 0.56 µM)

## N#Cc1ccccc1N1CCN(CC(=O)c2cnc3ncccn23)CC1
MCF7
  IC50: 11 µM
COLO 205
  IC50: 64.8 µM
A549 [1]
  IC50: 27.9 µM
Pyruvate kinase PKM
  IC50: 1.2 µM

## CC(=O)NC1(Cc2c[nH]c3ccc(Br)cc23)C(=O)N=C2N=CC=CN21 (stereo not drawn)
A549 [7]
  IC50: 1.4 µM

## CCOC(=O)c1ccc(-c2cn3cccnc3n2)cc1
Albumin
  inhibition at 100 µM: 54.2%

## CS(=O)(=O)C1=CNC(=O)N2CCN=C12
[8]
  CC50: > 150 µM
BK polyomavirus
  EC50: 22.4 µM

## Cc1c(C(=O)N2CCC2)cnn1CC(=O)Nc1ccn2cc(-c3ccccc3)nc2n1
[2]
  IC50: 0.004 µM

## Cc1c(C(=O)N2CC=CC2)cnn1C(=O)Nc1ccn2cc(-c3ccccc3)nc2n1
[2]
  IC50: 0.009 µM

## COc1ccc(C(=O)N2CCN(CC(=O)c3cnc4ncccn34)CC2)cc1
MCF7
  IC50: 11.6 µM
COLO 205
  IC50: 44.9 µM
A549 [1]
  IC50: 24 µM
Pyruvate kinase PKM
  IC50: 0.314 µM

## Cc1ccc(N2CCN(CC(=O)c3cnc4ncccn34)CC2)cc1
MCF7
  IC50: 14.5 µM
COLO 205
  IC50: 57.8 µM
A549 [1]
  IC50: 27.1 µM
Pyruvate kinase PKM
  IC50: 0.06 µM

## Nc1nc(N)nc(-c2nc(Cc3ccccc3F)c3ncccn23)n1
Aorta
  IC50: 0.215 µM

## O=C(CN1CCN(c2ccco2)CC1)c1cnc2ncccn12
MCF7
  IC50: 10.9 µM
COLO 205
  IC50: 61 µM
A549 [1]
  IC50: 19.4 µM
Pyruvate kinase PKM
  IC50: 0.31 µM

## O=C(O)c1ccccc1Nc1c(Cl)cccc1Cl
Albumin
  inhibition at 100 µM: 84.7%

## O=C(CN1CCN(C(=O)c2ccc(Cl)cc2)CC1)c1cnc2ncccn12
MCF7
  IC50: 11.8 µM
COLO 205
  IC50: 28 µM
A549 [1]
  IC50: 25.3 µM
Pyruvate kinase PKM
  IC50: 1.86 µM

## O=c1[nH]cc(-c2ccc(-c3ccccc3)cc2)c2nccn12
CCRF-CEM
  IC50: 8.59 µM
CEM-DNR
  IC50: 2.84 µM
A549 [3]
  IC50: 10.1 µM
K562
  IC50: 15.2 µM

## CC(=O)NC1(Cc2ccc(N)cc2)C(=O)N=C2N=CC=CN21 (stereo not drawn)
A549 [7]
  IC50: 3.2 µM

## Cc1ccc(C(=O)c2cnc3ncccn23)cc1
[4]
  MIC: 0.062 µg/mL (≈ 0.261 µM)
Pichia kudriavzevii
  MIC: 0.5 µg/mL (≈ 2.11 µM)
Nakaseomyces glabratus
  MIC: 0.062 µg/mL (≈ 0.261 µM)
Candida tropicalis
  MIC: 0.25 µg/mL (≈ 1.05 µM)
Candida dubliniensis
  MIC: 0.25 µg/mL (≈ 1.05 µM)
Kluyveromyces marxianus [5]
  MIC: 0.5 µg/mL (≈ 2.11 µM)
Candida albicans [6]
  MIC: 0.12 µg/mL (≈ 0.506 µM)

## C[C@@H]1[C@H](O)[C@@H](C)/C=C/C=C/C=C/C=C/C=C/C=C/C=C/[C@H](O[C@@H]2O[C@H](C)[C@@H](O)[C@H](N)[C@@H]2O)C[C@@H]2O[C@](O)(C[C@@H](O)C[C@@H](O)[C@H](O)CC[C@@H](O)C[C@@H](O)CC(=O)O[C@H]1C)C[C@H](O)[C@H]2C(=O)O [AMPHOTERICIN B]
Kluyveromyces marxianus [9]
  MIC: 12.5 µg/mL (≈ 13.5 µM)
Neurospora crassa
  MIC: 0.39 µg/mL (≈ 0.422 µM)
Aspergillus niger
  MIC: 0.39 µg/mL (≈ 0.422 µM)
Candida albicans [10]
  MIC: 0.78 µg/mL (≈ 0.844 µM)
Cryptococcus neoformans
  MIC: 0.2 µg/mL (≈ 0.216 µM)

## Nc1ccn(C[C@@H](CO)OCP(=O)(O)O)c(=O)n1 [CIDOFOVIR ANHYDROUS]
[8]
  CC50: > 150 µM
BK polyomavirus
  EC50: 0.24 µM

## CC(C)(C)c1nc(-c2cccc(NS(=O)(=O)c3c(F)cccc3F)c2F)c(-c2ccnc(N)n2)s1 [DABRAFENIB]
A549 [7]
  IC50: 0.003 µM

## OC(Cn1cncn1)(Cn1cncn1)c1ccc(F)cc1F [FLUCONAZOLE]
[4]
  MIC: 1 µg/mL (≈ 3.27 µM)
Pichia kudriavzevii
  MIC: 4 µg/mL (≈ 13.1 µM)
Candida tropicalis
  MIC: 1 µg/mL (≈ 3.27 µM)
Candida dubliniensis
  MIC: 0.5 µg/mL (≈ 1.63 µM)
Kluyveromyces marxianus [5]
  MIC: 1 µg/mL (≈ 3.27 µM)
Candida albicans [6]
  MIC: 0.5 µg/mL (≈ 1.63 µM)

## CC(=O)N1CCN(c2ccc(OCC3COC(Cn4ccnc4)(c4ccc(Cl)cc4Cl)O3)cc2)CC1 (stereo not drawn) [KETOCONAZOLE]
[4]
  MIC: 0.125 µg/mL (≈ 0.235 µM)
Pichia kudriavzevii
  MIC: 1 µg/mL (≈ 1.88 µM)
Nakaseomyces glabratus
  MIC: 0.25 µg/mL (≈ 0.47 µM)
Candida tropicalis
  MIC: 2 µg/mL (≈ 3.76 µM)
Candida dubliniensis
  MIC: 2 µg/mL (≈ 3.76 µM)
Kluyveromyces marxianus [5]
  MIC: 0.25 µg/mL (≈ 0.47 µM)
Candida albicans [6]
  MIC: 8 µg/mL (≈ 15.1 µM)
